Positions of bridges follow the written chain, without caps; N, C: chain ends. Residues, ends and D or L forms follow the SMILES beside them.
Columns and labels:
Type in all cases: cell-based
rNaV1.2 = molecular target: T1, rNaV1.2 (Rattus norvegicus, UniProt P04775); assay: Two-electrode voltage-clamp on Xenopus laevis oocytes expressing rNaV1.2; settings: 3 µM AbeTx1; TEVC, X. laevis oocytes, 100 ms depolarization from −90 mV to 0 mV
T1 construct: expressed in transfected cells; host or cells: Xenopus laevis oocytes injected with cRNA
Procedure: (§1) The pharmacological effect of AbeTx1 was analyzed by heterologous expression of 12 voltage-gated potassium channels isoforms (rKV1.1, Genbank NM173095; rKV1.2, Genbank NM012970; hKV1.3, Genbank L23499; rKV1.4,Genbank NM012971; rKV1.5, Genbank NM012972; rKV1.6, Genbank NM575671; Shaker IR from Drosophila melanogaster, Genbank CG12348; rKV2.1, Genbank NM013186; hKV3.1, Genbank NM004976; rKV4.2, Genbank NM031730; rKV4.3, Genbank NM031739 and hERG, Genbank NM000238), and three voltage-gated sodium channel subtypes (rNaV1.2, Genbank NM012647; rNaV1.4, Genbank M26643 and BgNaV1.1, from Blattella germanica) (r, rat; h, human) in oocytes from Xenopus laevis. The linearized plasmids were transcribed using a T7 or SP6 mMESSAGE-mMACHINE transcription kit (Life Technologies, Austin, TX, USA). […]
(§2) Two-electrode voltage-clamp recordings were performed at room temperature (18–22 °C) using a Geneclamp 500 amplifier (Molecular Devices, Sunnyvale, CA, USA) controlled by a pClamp data acquisition system (Axon Instruments, Union City, CA, USA). […] Whole-cell currents from oocytes were recorded 1–3 days after injection. […] Data were analyzed using Clampfit 10.4 (Molecular Devices, Sunnyvale, CA, USA) and Origin v8.1 software (Origin Lab, Northampton, MA, USA), under the institutional license of the University of São Paulo.

Shaker IR = molecular target: T2, Shaker IR (Drosophila melanogaster, UniProt P08510, DEL6-46); assay: Two-electrode voltage-clamp on Xenopus laevis oocytes expressing Shaker IR; settings: 3 µM AbeTx1; TEVC, X. laevis oocytes, 500 ms depolarization to 0 mV from holding −90 mV; mean ± SE, n ≥ 3; SEM; read-out: inhibition of Shaker IR current
T2 construct: expressed in transfected cells; host or cells: Xenopus laevis oocytes injected with cRNA
Procedure: as §1, §2

hERG = molecular target: T3, hERG (Homo sapiens, UniProt Q12809); assay: Two-electrode voltage-clamp on Xenopus laevis oocytes expressing hERG (KV11.1); settings: 3 µM AbeTx1; TEVC, X. laevis oocytes, +40 mV pulse 2.5 s then −120 mV 2.5 s
T3 construct: expressed in transfected cells; host or cells: Xenopus laevis oocytes injected with cRNA
Procedure: as §1, §2

rKV1.6 = molecular target: T4, rKV1.6 (Rattus norvegicus, UniProt P17659); assay: Two-electrode voltage-clamp on Xenopus laevis oocytes expressing rKV1.6; settings: for IC50: concentration-response curve, percentage blocked current fitted with Hill equation, TEVC oocytes, 0 mV from −90 mV, read-out: KV1.6 IC50
T4 construct: expressed in transfected cells; host or cells: Xenopus laevis oocytes injected with cRNA
Procedure: (§3) The pharmacological effect of AbeTx1 was analyzed by heterologous expression of 12 voltage-gated potassium channels isoforms (rKV1.1, Genbank NM173095; rKV1.2, Genbank NM012970; hKV1.3, Genbank L23499; rKV1.4,Genbank NM012971; rKV1.5, Genbank NM012972; rKV1.6, Genbank NM575671; Shaker IR from Drosophila melanogaster, Genbank CG12348; rKV2.1, Genbank NM013186; hKV3.1, Genbank NM004976; rKV4.2, Genbank NM031730; rKV4.3, Genbank NM031739 and hERG, Genbank NM000238), and three voltage-gated sodium channel subtypes (rNaV1.2, Genbank NM012647; rNaV1.4, Genbank M26643 and BgNaV1.1, from Blattella germanica) (r, rat; h, human) in oocytes from Xenopus laevis. The linearized plasmids were transcribed using a T7 or SP6 mMESSAGE-mMACHINE transcription kit (Life Technologies, Austin, TX, USA). Oocytes were injected with 20–50 nL of cRNA at a concentration of 1 ng·nL^−1 using a microinjector (Drummond Scientific, Broomall, PA, USA). The oocytes were stored for 1–3 days at 16 °C until sufficient expression of voltage-gated ion channels was achieved. Oocytes were maintained in an ND96 solution (in mM: 96 NaCl, 2 KCl, 1.8 CaCl2, 2 MgCl2 and 5 HEPES; pH 7.4), supplemented with 50 µg·mL^−1 gentamicin sulfate.
(§4) Two-electrode voltage-clamp recordings were performed at room temperature (18–22 °C) using a Geneclamp 500 amplifier (Molecular Devices, Sunnyvale, CA, USA) controlled by a pClamp data acquisition system (Axon Instruments, Union City, CA, USA). ND96 was used as bath solution. Whole-cell currents from oocytes were recorded 1–3 days after injection. Voltage and current electrodes were filled with KCl (3 M). The resistance of both electrodes was kept between 0.8–1.0 MΩ. The elicited currents were filtered at 0.5 or 2 kHz using a four-pole low-pass Bessel filter. Leak subtraction was performed using a -P/4 protocol. KV1.1-KV1.6 and Shaker IR currents were evoked by 500 ms depolarization to 0 mV, followed by a 500 ms pulse to −50 mV, from a holding potential of −90 mV. KV2.1, KV3.1, KV4.2, and KV4.3 currents were elicited by 500 ms pulses to + 20 mV from a holding potential of −90 mV. Current traces of hERG channels were elicited by applying a +40 mV pulse for 2.5 s, followed by a step to −120 mV for 2.5 s. Sodium current traces were evoked by 100 ms depolarization steps from a holding potential of −90 mV to 0 mV. Concentration-response curves were constructed by adding different AbeTx1 or analogs concentrations directly to the bath solution. The percentage of the KV blockade was plotted against the logarithm of the applied concentrations and fitted with the Hill Equation (1):y = 100/[1 + (IC50/[toxin]) × h](1) where y is the amplitude of the toxin-induced effect, IC50 is the toxin concentration at half-maximal efficacy, [toxin] is the toxin concentration, and h is the Hill coefficient. To investigate the effects on the voltage dependence of activation, current traces were evoked by 10 mV depolarization steps from a holding potential of −90 mV. Data were normalized to the maximal K^+ current amplitude, plotted against prepulse potential, and fitted using the Boltzmann Equation (2):IK/Imax = [1 + (exp(Vg − V)/k] − 1(2) where Imax represents maximal potassium current (IK), Vg is the voltage corresponding to half-maximal current, and k is the slope factor. Each experimental data represents mean ± standard error of at least three oocytes (n ≥ 3) from different frogs. Effect of the toxin on current-voltage experiments was statistically examined by comparing the control condition and the presence of toxin using the Student’s paired t-test. P-values < 0.05 are considered to be statistically significant. Data were analyzed using Clampfit 10.4 (Molecular Devices, Sunnyvale, CA, USA) and Origin v8.1 software (Origin Lab, Northampton, MA, USA), under the institutional license of the University of São Paulo.

rNaV1.4 = molecular target: T5, rNaV1.4 (Rattus norvegicus, UniProt P15390); assay: Two-electrode voltage-clamp on Xenopus laevis oocytes expressing rNaV1.4; settings: 3 µM AbeTx1; TEVC, X. laevis oocytes, 100 ms depolarization from −90 mV to 0 mV
T5 construct: expressed in transfected cells; host or cells: Xenopus laevis oocytes injected with cRNA
Procedure: as §1, §2

rKV1.1 = molecular target: T6, rKV1.1 (Rattus norvegicus, UniProt P10499); assay: Two-electrode voltage-clamp on Xenopus laevis oocytes expressing rKV1.1; settings: for IC50: concentration-response curve, percentage blocked current fitted with Hill equation, TEVC oocytes, 0 mV from −90 mV, read-out: KV1.1 IC50
T6 construct: expressed in transfected cells; host or cells: Xenopus laevis oocytes injected with cRNA
Procedure: as §3, §4

hKV1.3 = molecular target: T7, hKV1.3 (Homo sapiens, UniProt P22001); assay: Two-electrode voltage-clamp on Xenopus laevis oocytes expressing hKV1.3; settings: 3 µM AbeTx1; TEVC, X. laevis oocytes, 500 ms depolarization to 0 mV from holding −90 mV; mean ± SE, n ≥ 3; SEM; read-out: inhibition of KV1.3 current
T7 construct: expressed in transfected cells; host or cells: Xenopus laevis oocytes injected with cRNA
Procedure: as §1, §2

rKV1.2 = molecular target: T8, rKV1.2 (Rattus norvegicus, UniProt P63142); assay: Two-electrode voltage-clamp on Xenopus laevis oocytes expressing rKV1.2; settings: 3 µM AbeTx1; TEVC, X. laevis oocytes, 500 ms depolarization to 0 mV from holding −90 mV; mean ± SE, n ≥ 3; SEM; read-out: inhibition of KV1.2 current
T8 construct: expressed in transfected cells; host or cells: Xenopus laevis oocytes injected with cRNA
Procedure: as §1, §2

T4 sequence (P17659 whole entry): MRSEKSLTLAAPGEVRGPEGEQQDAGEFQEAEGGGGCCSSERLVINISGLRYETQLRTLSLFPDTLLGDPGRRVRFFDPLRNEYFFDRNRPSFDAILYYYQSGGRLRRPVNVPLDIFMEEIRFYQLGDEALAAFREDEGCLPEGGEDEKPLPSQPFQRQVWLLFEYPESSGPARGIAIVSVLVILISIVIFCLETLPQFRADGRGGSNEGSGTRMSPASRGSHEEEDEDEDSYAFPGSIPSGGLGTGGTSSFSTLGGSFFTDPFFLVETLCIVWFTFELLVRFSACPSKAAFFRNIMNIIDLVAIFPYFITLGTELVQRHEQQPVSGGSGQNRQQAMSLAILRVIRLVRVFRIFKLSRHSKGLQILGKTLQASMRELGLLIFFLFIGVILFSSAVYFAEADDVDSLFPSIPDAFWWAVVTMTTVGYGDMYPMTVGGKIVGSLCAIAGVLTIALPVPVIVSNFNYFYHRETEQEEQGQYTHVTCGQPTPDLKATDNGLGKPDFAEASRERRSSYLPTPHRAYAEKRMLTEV
T6 sequence (P10499 whole entry): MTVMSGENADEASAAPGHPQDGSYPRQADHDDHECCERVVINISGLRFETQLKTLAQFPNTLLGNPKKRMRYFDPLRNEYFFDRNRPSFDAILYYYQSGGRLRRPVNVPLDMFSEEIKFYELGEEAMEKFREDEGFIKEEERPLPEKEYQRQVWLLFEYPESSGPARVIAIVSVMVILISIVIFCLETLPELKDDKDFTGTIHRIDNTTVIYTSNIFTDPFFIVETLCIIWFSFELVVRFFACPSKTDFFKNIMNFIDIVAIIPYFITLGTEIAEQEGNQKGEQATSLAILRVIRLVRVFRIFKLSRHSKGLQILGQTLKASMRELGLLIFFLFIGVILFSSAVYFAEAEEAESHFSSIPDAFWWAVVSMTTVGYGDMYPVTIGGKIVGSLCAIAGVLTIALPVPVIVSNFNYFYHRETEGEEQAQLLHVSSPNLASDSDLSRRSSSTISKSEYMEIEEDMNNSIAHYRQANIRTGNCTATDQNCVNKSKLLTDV
T1 sequence (P04775 whole entry): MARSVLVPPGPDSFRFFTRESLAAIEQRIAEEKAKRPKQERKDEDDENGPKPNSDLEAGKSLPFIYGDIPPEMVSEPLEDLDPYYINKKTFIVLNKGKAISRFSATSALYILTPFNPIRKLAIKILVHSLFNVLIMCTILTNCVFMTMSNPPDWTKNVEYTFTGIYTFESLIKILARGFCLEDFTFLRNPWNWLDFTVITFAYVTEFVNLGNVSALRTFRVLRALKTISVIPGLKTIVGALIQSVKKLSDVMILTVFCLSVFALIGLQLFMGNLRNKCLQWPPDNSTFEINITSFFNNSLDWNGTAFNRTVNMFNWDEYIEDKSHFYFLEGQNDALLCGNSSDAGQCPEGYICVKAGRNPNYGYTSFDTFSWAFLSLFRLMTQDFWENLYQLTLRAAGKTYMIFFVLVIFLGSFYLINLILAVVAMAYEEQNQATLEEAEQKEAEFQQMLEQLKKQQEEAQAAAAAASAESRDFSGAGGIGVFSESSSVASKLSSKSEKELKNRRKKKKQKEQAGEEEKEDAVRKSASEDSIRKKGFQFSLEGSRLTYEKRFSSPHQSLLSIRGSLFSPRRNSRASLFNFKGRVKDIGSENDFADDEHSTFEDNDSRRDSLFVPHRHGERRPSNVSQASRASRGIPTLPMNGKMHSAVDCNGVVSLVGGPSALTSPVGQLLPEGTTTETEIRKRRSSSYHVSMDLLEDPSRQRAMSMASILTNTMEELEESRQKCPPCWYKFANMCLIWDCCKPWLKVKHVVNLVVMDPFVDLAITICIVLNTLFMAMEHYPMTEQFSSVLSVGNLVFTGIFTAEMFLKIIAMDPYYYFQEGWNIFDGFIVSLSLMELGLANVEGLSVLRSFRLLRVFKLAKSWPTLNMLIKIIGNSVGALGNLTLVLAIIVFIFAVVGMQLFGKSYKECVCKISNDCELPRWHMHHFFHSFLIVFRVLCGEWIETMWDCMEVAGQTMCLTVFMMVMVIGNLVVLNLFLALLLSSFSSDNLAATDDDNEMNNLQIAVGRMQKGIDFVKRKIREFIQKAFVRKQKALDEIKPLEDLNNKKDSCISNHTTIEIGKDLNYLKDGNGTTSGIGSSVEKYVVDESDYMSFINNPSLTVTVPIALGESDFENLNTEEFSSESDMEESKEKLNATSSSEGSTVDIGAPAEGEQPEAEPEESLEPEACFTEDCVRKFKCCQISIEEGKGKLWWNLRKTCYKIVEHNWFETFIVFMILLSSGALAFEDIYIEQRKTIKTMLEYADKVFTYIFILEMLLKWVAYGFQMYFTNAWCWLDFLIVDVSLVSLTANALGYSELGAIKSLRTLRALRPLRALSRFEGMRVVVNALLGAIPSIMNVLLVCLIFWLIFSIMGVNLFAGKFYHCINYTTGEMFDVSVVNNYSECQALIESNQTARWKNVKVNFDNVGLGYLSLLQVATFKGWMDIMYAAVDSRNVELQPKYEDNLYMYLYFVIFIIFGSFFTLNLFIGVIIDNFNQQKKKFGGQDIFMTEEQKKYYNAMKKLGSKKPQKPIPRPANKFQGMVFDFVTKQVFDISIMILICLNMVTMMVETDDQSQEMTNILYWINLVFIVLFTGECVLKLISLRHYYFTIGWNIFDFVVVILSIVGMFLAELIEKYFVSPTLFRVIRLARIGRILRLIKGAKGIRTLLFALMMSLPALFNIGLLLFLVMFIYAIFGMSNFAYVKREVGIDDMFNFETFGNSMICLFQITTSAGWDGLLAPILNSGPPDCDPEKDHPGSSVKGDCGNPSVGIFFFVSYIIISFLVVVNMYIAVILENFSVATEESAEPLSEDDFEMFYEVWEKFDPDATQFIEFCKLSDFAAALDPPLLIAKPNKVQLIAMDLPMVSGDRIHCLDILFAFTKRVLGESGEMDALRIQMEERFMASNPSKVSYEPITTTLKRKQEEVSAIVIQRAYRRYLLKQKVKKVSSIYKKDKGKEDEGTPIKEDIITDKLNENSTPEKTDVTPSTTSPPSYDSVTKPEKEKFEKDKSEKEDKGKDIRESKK
T8 sequence (P63142 whole entry): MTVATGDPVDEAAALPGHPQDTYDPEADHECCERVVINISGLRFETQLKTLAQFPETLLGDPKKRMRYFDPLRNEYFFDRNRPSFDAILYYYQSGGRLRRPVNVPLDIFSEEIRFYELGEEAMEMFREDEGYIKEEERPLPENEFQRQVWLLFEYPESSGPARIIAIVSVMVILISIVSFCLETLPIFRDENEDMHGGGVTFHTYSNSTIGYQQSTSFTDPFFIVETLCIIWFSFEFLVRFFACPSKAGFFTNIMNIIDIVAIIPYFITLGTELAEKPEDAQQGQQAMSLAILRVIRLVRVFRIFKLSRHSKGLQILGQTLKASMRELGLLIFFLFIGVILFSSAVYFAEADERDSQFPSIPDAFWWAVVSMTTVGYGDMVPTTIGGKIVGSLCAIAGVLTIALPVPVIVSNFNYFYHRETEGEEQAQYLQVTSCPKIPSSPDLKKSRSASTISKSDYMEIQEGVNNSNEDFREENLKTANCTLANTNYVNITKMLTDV
T3 sequence (Q12809 whole entry): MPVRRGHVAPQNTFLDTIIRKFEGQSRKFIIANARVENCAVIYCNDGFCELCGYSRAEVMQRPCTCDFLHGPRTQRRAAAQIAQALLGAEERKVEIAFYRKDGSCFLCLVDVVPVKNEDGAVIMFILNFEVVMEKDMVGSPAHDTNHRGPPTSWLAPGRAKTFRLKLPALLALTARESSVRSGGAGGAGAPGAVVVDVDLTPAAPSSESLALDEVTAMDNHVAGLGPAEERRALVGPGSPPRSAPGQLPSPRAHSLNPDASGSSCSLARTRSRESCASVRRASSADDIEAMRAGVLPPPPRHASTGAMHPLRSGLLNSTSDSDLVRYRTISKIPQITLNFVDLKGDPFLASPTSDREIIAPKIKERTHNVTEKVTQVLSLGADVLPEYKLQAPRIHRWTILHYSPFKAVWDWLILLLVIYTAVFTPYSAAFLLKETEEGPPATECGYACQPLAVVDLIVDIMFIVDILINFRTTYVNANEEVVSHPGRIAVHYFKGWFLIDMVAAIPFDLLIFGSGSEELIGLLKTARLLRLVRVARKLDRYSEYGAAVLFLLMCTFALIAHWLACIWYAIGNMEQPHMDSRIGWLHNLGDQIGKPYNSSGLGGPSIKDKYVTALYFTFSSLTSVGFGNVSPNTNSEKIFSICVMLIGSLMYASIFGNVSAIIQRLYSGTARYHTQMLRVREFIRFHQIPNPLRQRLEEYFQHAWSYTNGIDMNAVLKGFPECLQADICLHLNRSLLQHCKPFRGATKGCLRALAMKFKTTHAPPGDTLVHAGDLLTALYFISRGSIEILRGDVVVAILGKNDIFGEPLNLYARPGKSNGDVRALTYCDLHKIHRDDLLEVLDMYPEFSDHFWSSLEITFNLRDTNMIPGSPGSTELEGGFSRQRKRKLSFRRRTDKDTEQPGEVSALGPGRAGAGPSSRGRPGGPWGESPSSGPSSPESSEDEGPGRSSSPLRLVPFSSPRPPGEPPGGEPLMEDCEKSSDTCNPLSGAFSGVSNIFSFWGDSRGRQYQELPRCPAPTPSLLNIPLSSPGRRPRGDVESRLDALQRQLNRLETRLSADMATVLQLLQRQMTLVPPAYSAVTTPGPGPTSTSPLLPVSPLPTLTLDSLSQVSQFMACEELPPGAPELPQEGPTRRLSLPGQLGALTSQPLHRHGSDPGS

Structure (SMILES) | activity on NaV1.2 (rNaV1.2) | inhibition at 3 µM (Shaker IR) | effect on KV11.1 (hERG) current (hERG) | inhibition at 3 µM (rKV1.6; 3 µM AbeTx1, TEVC, X. laevis oocytes, 500 ms depolarization to 0 mV from holding −90 mV, mean ± SE, n ≥ 3, SEM, read-out: inhibition of KV1.6 current) | reduction of KV1.6 current, toxin added on top of TEA (rKV1.6; AbeTx1 120 nM applied to bath already containing 920 μM TEA) | IC50 (rKV1.6; mean ± SE, n ≥ 3, SEM) | activity on NaV1.4 (rNaV1.4) | inhibition at 3 µM (rKV1.1; 3 µM AbeTx1, TEVC, X. laevis oocytes, 500 ms depolarization to 0 mV from holding −90 mV, mean ± SE, n ≥ 3, SEM, read-out: inhibition of KV1.1 current) | reduction of KV1.1 current, toxin added on top of TEA (rKV1.1; AbeTx1 600 nM applied to bath already containing 200 μM TEA, n = 6) | reduction of the KV1.1 K+ current at +70 mV (rKV1.1; AbeTx1 600 nM, test potential +70 mV from holding −90 mV, n = 6) | reduction of the KV1.1 K+ current at −20 mV (rKV1.1; AbeTx1 600 nM, test potential −20 mV from holding −90 mV, n = 6) | IC50 (rKV1.1; mean ± SE, n ≥ 3, SEM) | inhibition at 3 µM (hKV1.3) | inhibition at 3 µM (rKV1.2)
C[C@@H](O)[C@@H]1NC(=O)[C@H](CCCCN)NC(=O)[C@@H](NC(=O)[C@@H](N)CCCNC(=N)N)CSSC[C@@H](C(=O)NCC(=O)O)NC(=O)[C@H](CC(N)=O)NC(=O)[C@@H]2CCCN2C(=O)[C@H](CCCCN)NC(=O)[C@@H]2CCCN2C(=O)[C@H](CCCNC(=N)N)NC(=O)[C@@H]2CSSC[C@H](NC1=O)C(=O)N[C@@H](CO)C(=O)N[C@@H](CCCCN)C(=O)NCC(=O)N[C@@H](CCCNC(=N)N)C(=O)N2 [AbeTx1] (H-RCKTCSKGRCRPKPNCG-OH; disulfide 2-16, 5-10) | no activity | 15.5 ± 1.8% | not affected | 95 ± 2.44% | 55.33 ± 2.47% | 116 ± 31.4 nM | no activity | 83.7 ± 1.45% | 71.20 ± 2.18% | 11.07 ± 1.12% | 53.47 ± 5.07% | 0.672 ± 0.15 µM | 19.7 ± 2.18% | 95.3 ± 1.45%
C[C@H](N)C(=O)N[C@H]1CSSC[C@@H](C(=O)NCC(=O)O)NC(=O)[C@H](CC(N)=O)NC(=O)[C@@H]2CCCN2C(=O)[C@H](CCCCN)NC(=O)[C@@H]2CCCN2C(=O)[C@H](CCCNC(=N)N)NC(=O)[C@@H]2CSSC[C@H](NC(=O)[C@H]([C@@H](C)O)NC(=O)[C@H](CCCCN)NC1=O)C(=O)N[C@@H](CO)C(=O)N[C@@H](CCCCN)C(=O)NCC(=O)N[C@@H](CCCNC(=N)N)C(=O)N2 [Arg1Ala] (H-ACKTCSKGRCRPKPNCG-OH; disulfide 2-16, 5-10) |  |  |  |  |  | 3530 nM |  |  |  |  |  | 1.97 µM |  | 
C[C@@H]1NC(=O)CNC(=O)[C@H](CCCCN)NC(=O)[C@H](CO)NC(=O)[C@@H]2CSSC[C@H](NC1=O)C(=O)N[C@@H](CCCNC(=N)N)C(=O)N1CCC[C@H]1C(=O)N[C@@H](CCCCN)C(=O)N1CCC[C@H]1C(=O)N[C@@H](CC(N)=O)C(=O)N[C@H](C(=O)NCC(=O)O)CSSC[C@H](NC(=O)[C@@H](N)CCCNC(=N)N)C(=O)N[C@@H](CCCCN)C(=O)N[C@@H]([C@@H](C)O)C(=O)N2 [Arg9Ala] (H-RCKTCSKGACRPKPNCG-OH; disulfide 2-16, 5-10) |  |  |  |  |  | 2440 nM |  |  |  |  |  | 8.5 µM |  | 
C[C@@H]1NC(=O)[C@@H]2CSSC[C@H](NC(=O)[C@H]([C@@H](C)O)NC(=O)[C@H](CCCCN)NC(=O)[C@@H](NC(=O)[C@@H](N)CCCNC(=N)N)CSSC[C@@H](C(=O)NCC(=O)O)NC(=O)[C@H](CC(N)=O)NC(=O)[C@@H]3CCCN3C(=O)[C@H](CCCCN)NC(=O)[C@@H]3CCCN3C1=O)C(=O)N[C@@H](CO)C(=O)N[C@@H](CCCCN)C(=O)NCC(=O)N[C@@H](CCCNC(=N)N)C(=O)N2 [Arg11Ala] (H-RCKTCSKGRCAPKPNCG-OH; disulfide 2-16, 5-10) |  |  |  |  |  | 811 ± 179 nM |  |  |  |  |  | 21.5 µM |  | 
